Results reported in ChEMBL document CHEMBL1201862, “PubChem BioAssay data set” (2004).
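Test compounds were applied to cells in 96-well plates for 48 hours at 5 doses. Abbreviation: GI50, concentration required for 50% inhibition of growth.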 The source made the active and inactive calls. No stated cut-off is given here; in the data, active = GI50 up to about 1.1 µM and inactive = higher.

Experiments:
Assay in all cases: NCI anticancer screen, dose series, 48 h
A498 = system: A498
A549 = system: A549
COLO 205 = system: COLO 205
HOP-92 = system: HOP-92
HT-29 = system: HT-29
KM12 = system: KM12
LOX IMVI = system: LOX IMVI
MOLT-4 = system: MOLT-4
NCI-H226 = system: NCI-H226
OVCAR-4 = system: OVCAR-4
RXF 393 = system: RXF 393
SF-295 = system: SF-295
SF-539 = system: SF-539
SK-MEL-28 = system: SK-MEL-28
SNB-75 = system: SNB-75
SW-620 = system: SW-620
TK-10 = system: TK-10
UACC-62 = system: UACC-62
T47D = system: T47D
Hs-578T = system: Hs-578T

Row | Compound | GI50 (A498) | GI50 (A549) | GI50 (COLO 205) | GI50 (HOP-92) | GI50 (HT-29) | GI50 (KM12) | GI50 (LOX IMVI) | GI50 (MOLT-4) | GI50 (NCI-H226) | GI50 (OVCAR-4) | GI50 (RXF 393) | GI50 (SF-295) | GI50 (SF-539) | GI50 (SK-MEL-28) | GI50 (SNB-75) | GI50 (SW-620) | GI50 (TK-10) | GI50 (UACC-62) | GI50 (T47D) | GI50 (Hs-578T)
1 | NC1=NN(c2ccccc2)C(=O)C1C(=O)C(=O)Nc1ccc(Cl)cc1 (stereo unspecified) | > 100 µM (inactive) | > 100 µM (inactive) | > 100 µM (inactive) | > 100 µM (inactive) | > 100 µM (inactive) | > 100 µM (inactive) | > 100 µM (inactive) | > 100 µM (inactive) | > 100 µM (inactive) | > 100 µM (inactive) | > 100 µM (inactive) | > 100 µM (inactive) | > 100 µM (inactive) | > 100 µM (inactive) | > 100 µM (inactive) | > 100 µM (inactive) | > 100 µM (inactive) | > 100 µM (inactive) | – | –
2 | CC(=O)C1C(=O)C(=O)N(c2ccc(Cl)c(Cl)c2)C1=O (stereo unspecified) | – | > 100 µM (inactive) | > 100 µM (inactive) | > 100 µM (inactive) | > 100 µM (inactive) | > 100 µM (inactive) | > 100 µM (inactive) | > 100 µM (inactive) | > 100 µM (inactive) | – | – | > 100 µM (inactive) | > 100 µM (inactive) | > 100 µM (inactive) | > 100 µM (inactive) | > 100 µM (inactive) | > 100 µM (inactive) | > 100 µM (inactive) | > 100 µM (inactive) | –
3 | CC(C)c1cccc(C(C)C)c1NC(=O)C(=O)C1CCC2=C(Sc3ccccc3N2)C1=O (stereo unspecified) | > 100 µM (inactive) | > 100 µM (inactive) | 24.4 µM (inactive) | > 100 µM (inactive) | 58.5 µM (inactive) | > 100 µM (inactive) | 53.6 µM (inactive) | 43.7 µM (inactive) | 29.4 µM (inactive) | 95.9 µM (inactive) | > 100 µM (inactive) | 80.5 µM (inactive) | 31.3 µM (inactive) | > 100 µM (inactive) | 32.3 µM (inactive) | 12 µM (inactive) | > 100 µM (inactive) | > 100 µM (inactive) | – | –
4 | NNC(=O)/C(NC(=O)c1ccccc1)=C(\N)c1cccc([N+](=O)[O-])c1 | > 100 µM (inactive) | > 100 µM (inactive) | > 100 µM (inactive) | > 100 µM (inactive) | > 100 µM (inactive) | > 100 µM (inactive) | > 100 µM (inactive) | 94.2 µM (inactive) | > 100 µM (inactive) | > 100 µM (inactive) | > 100 µM (inactive) | > 100 µM (inactive) | > 100 µM (inactive) | > 100 µM (inactive) | > 100 µM (inactive) | > 100 µM (inactive) | > 100 µM (inactive) | > 100 µM (inactive) | – | –
5 | N#CC1(C#N)C(C#N)(C#N)C12CCCCCC2 | 18.5 µM (inactive) | 14.7 µM (inactive) | 15.7 µM (inactive) | 15.4 µM (inactive) | 17.2 µM (inactive) | 14 µM (inactive) | 16.7 µM (inactive) | 5.45 µM (inactive) | 20 µM (inactive) | 16.3 µM (inactive) | 10.4 µM (inactive) | > 39.7 µM (inactive) | 13.6 µM (inactive) | 8.57 µM (inactive) | 22.9 µM (inactive) | 1.95 µM (inactive) | 16.8 µM (inactive) | 12.9 µM (inactive) | – | –
6 | Cc1ccc(N2C(=O)C(=CN)C(=O)N(c3ccc(C)cc3)C2=O)cc1 | 84.9 µM (inactive) | > 100 µM (inactive) | > 100 µM (inactive) | 31.1 µM (inactive) | > 100 µM (inactive) | > 100 µM (inactive) | > 100 µM (inactive) | > 100 µM (inactive) | > 100 µM (inactive) | > 100 µM (inactive) | 91.6 µM (inactive) | > 100 µM (inactive) | > 100 µM (inactive) | > 100 µM (inactive) | 13.3 µM (inactive) | > 100 µM (inactive) | 48.4 µM (inactive) | 68.9 µM (inactive) | – | –
7 | CCN(CC)Cc1sc2nc3ccccc3n2c1-c1ccc(OC)cc1 | 22.9 µM (inactive) | 31.8 µM (inactive) | 21.5 µM (inactive) | 27.8 µM (inactive) | 18.5 µM (inactive) | 20.6 µM (inactive) | 28.3 µM (inactive) | 19.6 µM (inactive) | 22.8 µM (inactive) | 53.2 µM (inactive) | 26.2 µM (inactive) | 24.5 µM (inactive) | – | 22.7 µM (inactive) | 33.8 µM (inactive) | 29 µM (inactive) | 79.6 µM (inactive) | 34.8 µM (inactive) | – | 34.9 µM (inactive)
8 | COc1cc(C2c3cc4c(cc3OC(Nc3ccccc3)C2C)OCO4)cc(OC)c1O (stereo unspecified) | – | 3.85 µM (inactive) | 11.3 µM (inactive) | 16.7 µM (inactive) | 3.85 µM (inactive) | 4.41 µM (inactive) | – | 0.836 µM (active) | 19.6 µM (inactive) | 11.8 µM (inactive) | 4.45 µM (inactive) | 4.28 µM (inactive) | 2.84 µM (inactive) | 5.57 µM (inactive) | 1.63 µM (inactive) | 3.37 µM (inactive) | 3.49 µM (inactive) | 3.66 µM (inactive) | 15.8 µM (inactive) | –
